Source: US9234018B2, “Compositions and methods for the treatment of VprBP-related cancers” (University of Southern California, priority 2013, dated 2016)

How the values were obtained:
[1] = system: H2AT120p and VprBP at target genes in DU145 cells; test: Chromatin immunoprecipitation (ChIP) at VprBP target genes; assay type: cell-based, human; conditions: B32B3 1 mM
Experimental: Mock-depleted or VprBP-depleted DU145 cells were grown to 70-80% confluence, cross-linked with 1% formaldehyde for 10 min, and processed for ChIP as recently described (Kim, K. et al. (2012) Mol. Cell Biol. 32:783-796). […] All samples were run in triplicate and results were averaged. Sequences of the primers used for quantitative real time PCR (qPCR) are as follows: […]

BUB1 = BUB1 (Homo sapiens, UniProt O43683); test: Kinase selectivity panel; assay type: biochemical
CDK18 = CDK18 (Homo sapiens, UniProt Q07002); test: Kinase selectivity panel; assay type: biochemical
CHK2 = CHK2 (Homo sapiens, UniProt O96017); test: Kinase selectivity panel; assay type: biochemical
CDK7 = CDK7 (Homo sapiens, UniProt P50613); test: Kinase selectivity panel; assay type: biochemical
ATR = ATR (Homo sapiens, UniProt Q13535); test: Kinase selectivity panel; assay type: biochemical
AURKA = AURKA (Homo sapiens, UniProt O14965); test: Kinase selectivity panel; assay type: biochemical
MLC cells = test: Cell viability by MTT assay in normal cells; assay type: cell-based; conditions: concentrations up to 5 mM, 24 h; cells lacking VprBP-mediated H2AT120p
Experimental: FIGS. 8A-8I show characterization of B32B3 as a small-molecule VprBP kinase inhibitor, related to FIG. 4. (FIG. 8A) DU145 cells were infected with mock lentiviruse, VprBP-expressing shRNA lentivirus or Flag-VprBP-expressing lentivirus, and treated with the indicated concentrations of B32B3 for 24 h. Changes in H2AT120p as the results of B32B3 treatment were determined by the quantitative estimates of Western band intensity. Results represent the means±S.D. of three independent experiments. (FIG. 8B) DU145 cells were treated with the indicated concentrations of B32B3 and B20H6 for 72 h. Cell viability was measured by the MTT assay and was normalized to cells not exposed to the compounds. Data represent the means±S.D. of three independent experiments. […] (FIG. 8D) MLC cells were treated with B32B3 at the indicated doses for 24 h, and cell viability was assessed by MTT assay. […] (FIG. 8E) VprBP-mediated H2AT120p was analyzed in the presence of increasing concentrations of ATP and B32B3. (FIG. 8F) Body weights of vehicle or B32B3-treated mice were monitored during the treatment period. […] The stability of B32B3 in plasma was determined by LC-MS/MS at the indicated time points. […] Blood samples were collected at the indicated time points, and the concentration of B32B3 in plasma was analyzed by HPLC coupled mass spectrophotometry. […]

AKT3 = AKT3 (Homo sapiens, UniProt Q9Y243); test: Kinase selectivity panel; assay type: biochemical
BCK = test: Kinase selectivity panel; assay type: biochemical, human
[2] = system: VprBP target genes in DU145 cells; test: qRT-PCR of VprBP target genes; assay type: cell-based, human; conditions: B32B3 1 mM
Experimental: Total RNA was isolated from mock- or VprBP-depleted cells using the TRIzol reagent according to the manufacturer's instructions (Invitrogen). Gene expression microarray experiments were conducted using a whole-genome expression array (Human HT-12 v4 Expression BeadChip, Illumina). This high density oligonucleotide array chip targets more than 47000 probe sequences derived from National Center for Biotechnology Information Reference Sequence (NCBI) RefSeq Release 38 (Nov. 7, 2009) and other sources. Data were processed and analyzed by the ArrayPipe software (www.pathogenomics.ca/arraypipe). For qRT-PCR, total RNA was extracted as described for microarray and subjected to RT reactions with the use of PerfeCta® SYBR Green FastMix (Quanta BIOSCIENCES) and an iCycler IQ5 real time cycler (Bio-Rad). The specificity of the amplification reactions were monitored by melting curve analysis. Assays were normalized to β-actin mRNA levels. The following primers were used for qRT-PCR: […]

RSK3 = RSK3 (Homo sapiens, UniProt Q15349); test: Kinase selectivity panel; assay type: biochemical
RSK3, sequence (Q15349 whole entry): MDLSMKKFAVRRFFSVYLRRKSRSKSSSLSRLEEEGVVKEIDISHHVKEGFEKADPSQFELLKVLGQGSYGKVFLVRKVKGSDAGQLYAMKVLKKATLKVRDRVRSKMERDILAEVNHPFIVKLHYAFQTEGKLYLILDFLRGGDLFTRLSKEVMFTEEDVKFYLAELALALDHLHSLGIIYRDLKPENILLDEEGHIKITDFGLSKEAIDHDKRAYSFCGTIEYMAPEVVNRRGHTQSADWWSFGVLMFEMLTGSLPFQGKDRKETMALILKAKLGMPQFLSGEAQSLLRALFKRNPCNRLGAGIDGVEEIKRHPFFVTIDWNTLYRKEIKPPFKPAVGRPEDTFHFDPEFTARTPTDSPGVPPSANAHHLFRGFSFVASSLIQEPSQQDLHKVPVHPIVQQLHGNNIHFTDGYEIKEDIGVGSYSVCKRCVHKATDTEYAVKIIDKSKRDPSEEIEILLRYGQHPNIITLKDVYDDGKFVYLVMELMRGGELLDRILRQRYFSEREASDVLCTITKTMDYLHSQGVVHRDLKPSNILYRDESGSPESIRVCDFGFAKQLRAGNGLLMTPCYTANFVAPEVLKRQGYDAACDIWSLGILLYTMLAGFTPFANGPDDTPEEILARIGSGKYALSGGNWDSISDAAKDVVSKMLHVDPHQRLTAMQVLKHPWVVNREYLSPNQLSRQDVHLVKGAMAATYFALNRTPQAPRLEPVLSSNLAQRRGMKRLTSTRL

CDK7, sequence (P50613 whole entry): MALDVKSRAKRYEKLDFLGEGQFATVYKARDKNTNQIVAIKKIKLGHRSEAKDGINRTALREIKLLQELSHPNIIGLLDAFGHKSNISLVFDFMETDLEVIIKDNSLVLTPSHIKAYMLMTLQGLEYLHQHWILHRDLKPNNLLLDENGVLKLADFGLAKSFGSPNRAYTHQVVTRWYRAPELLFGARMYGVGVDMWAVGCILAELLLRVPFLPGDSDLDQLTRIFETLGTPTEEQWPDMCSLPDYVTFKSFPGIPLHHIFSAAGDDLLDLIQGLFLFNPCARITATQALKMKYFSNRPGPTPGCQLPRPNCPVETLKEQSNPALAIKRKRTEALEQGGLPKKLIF
CDK7, sequence (P51946 whole entry partner): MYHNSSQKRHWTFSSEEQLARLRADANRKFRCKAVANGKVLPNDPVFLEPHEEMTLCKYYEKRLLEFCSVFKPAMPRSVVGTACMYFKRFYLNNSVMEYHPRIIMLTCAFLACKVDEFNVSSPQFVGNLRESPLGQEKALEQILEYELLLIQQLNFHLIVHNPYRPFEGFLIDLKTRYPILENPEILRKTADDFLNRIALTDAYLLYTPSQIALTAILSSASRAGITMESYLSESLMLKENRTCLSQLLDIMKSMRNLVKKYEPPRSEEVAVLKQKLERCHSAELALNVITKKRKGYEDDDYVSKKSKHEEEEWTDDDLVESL
CDK7, sequence (P51948 whole entry partner): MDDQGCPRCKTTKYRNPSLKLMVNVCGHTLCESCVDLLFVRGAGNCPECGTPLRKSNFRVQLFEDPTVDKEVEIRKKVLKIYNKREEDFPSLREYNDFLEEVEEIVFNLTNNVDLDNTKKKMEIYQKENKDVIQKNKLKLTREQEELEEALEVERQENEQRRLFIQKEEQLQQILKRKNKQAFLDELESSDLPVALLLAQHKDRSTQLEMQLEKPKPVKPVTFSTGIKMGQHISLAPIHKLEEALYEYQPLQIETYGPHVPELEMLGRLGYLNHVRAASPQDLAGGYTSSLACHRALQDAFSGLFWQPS
BUB1, sequence (O43683 whole entry): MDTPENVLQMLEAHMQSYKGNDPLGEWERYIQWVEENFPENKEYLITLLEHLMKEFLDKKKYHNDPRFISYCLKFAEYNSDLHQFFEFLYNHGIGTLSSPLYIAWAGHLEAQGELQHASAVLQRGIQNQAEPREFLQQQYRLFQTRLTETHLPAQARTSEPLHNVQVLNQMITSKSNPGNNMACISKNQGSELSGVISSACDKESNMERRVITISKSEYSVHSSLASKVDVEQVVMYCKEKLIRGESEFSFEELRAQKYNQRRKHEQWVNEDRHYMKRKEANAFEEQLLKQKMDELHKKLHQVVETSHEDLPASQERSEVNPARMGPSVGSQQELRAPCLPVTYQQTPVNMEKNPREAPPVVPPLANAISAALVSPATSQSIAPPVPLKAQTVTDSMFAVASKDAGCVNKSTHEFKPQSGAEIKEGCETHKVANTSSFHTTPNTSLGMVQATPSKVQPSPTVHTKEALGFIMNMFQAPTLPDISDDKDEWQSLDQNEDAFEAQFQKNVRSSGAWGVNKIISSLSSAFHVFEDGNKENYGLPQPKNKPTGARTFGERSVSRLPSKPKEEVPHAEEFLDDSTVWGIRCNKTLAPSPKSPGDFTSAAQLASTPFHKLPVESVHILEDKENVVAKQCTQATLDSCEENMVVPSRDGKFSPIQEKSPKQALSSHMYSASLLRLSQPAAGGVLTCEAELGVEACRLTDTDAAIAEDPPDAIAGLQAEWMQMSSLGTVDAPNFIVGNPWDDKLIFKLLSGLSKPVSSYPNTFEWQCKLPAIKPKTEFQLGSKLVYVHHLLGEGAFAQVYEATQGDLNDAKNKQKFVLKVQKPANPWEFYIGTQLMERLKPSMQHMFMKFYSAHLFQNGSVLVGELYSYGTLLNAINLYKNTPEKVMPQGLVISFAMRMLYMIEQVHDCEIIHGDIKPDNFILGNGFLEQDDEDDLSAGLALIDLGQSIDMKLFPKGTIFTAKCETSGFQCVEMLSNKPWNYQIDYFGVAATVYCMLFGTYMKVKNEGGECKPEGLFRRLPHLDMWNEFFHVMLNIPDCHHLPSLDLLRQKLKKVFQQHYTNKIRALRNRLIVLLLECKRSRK
CDK18, sequence (Q07002 whole entry): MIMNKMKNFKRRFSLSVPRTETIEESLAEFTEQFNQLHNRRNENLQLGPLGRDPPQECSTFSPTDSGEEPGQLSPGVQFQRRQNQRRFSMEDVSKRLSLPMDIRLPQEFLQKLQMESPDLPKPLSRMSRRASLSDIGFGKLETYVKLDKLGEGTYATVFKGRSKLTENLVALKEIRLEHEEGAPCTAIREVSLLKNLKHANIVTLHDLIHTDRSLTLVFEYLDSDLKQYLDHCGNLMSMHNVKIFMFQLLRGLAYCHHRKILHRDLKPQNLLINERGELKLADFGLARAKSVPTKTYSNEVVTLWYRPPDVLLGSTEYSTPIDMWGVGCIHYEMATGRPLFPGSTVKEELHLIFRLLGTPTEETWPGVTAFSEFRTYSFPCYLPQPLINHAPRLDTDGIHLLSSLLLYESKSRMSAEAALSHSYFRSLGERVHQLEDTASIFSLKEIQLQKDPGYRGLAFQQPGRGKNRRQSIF
AURKA, sequence (O14965 whole entry): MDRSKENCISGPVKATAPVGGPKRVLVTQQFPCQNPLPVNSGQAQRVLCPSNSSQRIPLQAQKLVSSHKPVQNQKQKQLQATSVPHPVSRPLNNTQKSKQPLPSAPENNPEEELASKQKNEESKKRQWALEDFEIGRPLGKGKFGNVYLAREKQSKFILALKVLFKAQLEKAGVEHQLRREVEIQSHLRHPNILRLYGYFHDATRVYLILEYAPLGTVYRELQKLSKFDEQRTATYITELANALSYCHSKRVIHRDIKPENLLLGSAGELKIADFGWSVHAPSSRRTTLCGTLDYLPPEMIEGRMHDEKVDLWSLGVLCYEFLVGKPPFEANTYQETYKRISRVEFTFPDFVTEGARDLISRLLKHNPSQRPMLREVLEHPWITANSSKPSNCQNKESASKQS
AKT3, sequence (Q9Y243 whole entry): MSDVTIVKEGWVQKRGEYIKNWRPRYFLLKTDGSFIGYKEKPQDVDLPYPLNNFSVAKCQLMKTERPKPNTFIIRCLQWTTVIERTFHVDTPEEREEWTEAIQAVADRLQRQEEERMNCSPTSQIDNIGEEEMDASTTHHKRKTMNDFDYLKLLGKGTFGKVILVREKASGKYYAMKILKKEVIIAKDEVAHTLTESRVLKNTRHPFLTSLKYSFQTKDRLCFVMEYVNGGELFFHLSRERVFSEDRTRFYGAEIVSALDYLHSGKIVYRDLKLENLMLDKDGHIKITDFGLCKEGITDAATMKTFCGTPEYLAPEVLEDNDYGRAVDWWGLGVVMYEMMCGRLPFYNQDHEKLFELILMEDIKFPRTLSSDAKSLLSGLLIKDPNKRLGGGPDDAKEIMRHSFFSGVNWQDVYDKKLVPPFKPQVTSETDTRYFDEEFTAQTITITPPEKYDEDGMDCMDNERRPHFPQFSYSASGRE
CHK2, sequence (O96017 whole entry): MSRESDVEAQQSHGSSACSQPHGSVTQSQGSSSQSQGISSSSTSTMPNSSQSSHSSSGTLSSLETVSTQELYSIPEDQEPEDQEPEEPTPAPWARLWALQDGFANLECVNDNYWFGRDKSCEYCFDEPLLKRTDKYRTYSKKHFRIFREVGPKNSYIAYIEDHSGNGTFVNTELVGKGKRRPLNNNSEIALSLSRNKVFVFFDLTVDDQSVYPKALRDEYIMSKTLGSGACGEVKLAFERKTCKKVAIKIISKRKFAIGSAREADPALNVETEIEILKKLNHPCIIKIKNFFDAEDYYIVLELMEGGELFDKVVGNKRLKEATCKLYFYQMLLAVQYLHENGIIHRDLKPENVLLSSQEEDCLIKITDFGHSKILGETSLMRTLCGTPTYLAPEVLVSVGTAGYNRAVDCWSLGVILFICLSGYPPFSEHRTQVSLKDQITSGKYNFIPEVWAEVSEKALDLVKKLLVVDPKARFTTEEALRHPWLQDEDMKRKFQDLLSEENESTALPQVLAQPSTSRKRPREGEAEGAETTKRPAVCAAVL

**Q.** With c1ccc2c(CNNc3ncnc4sc5c(c34)CCCC5)c[nH]c2c1 [B32B3] as the molecule, how does the “Reduction of H2AT120p at promoter and coding regions of target genes” value [1] read?
**A.** The value was 70%.

**Q.** What about the “VprBP levels at promoter and coding regions of target genes” value [1] of the same molecule?
**A.** The value was “did not alter”.

**Q.** And the IC50 (BUB1)?
**A.** The IC50 was over 10 µM.

**Q.** What about the IC50 (CDK18) of the same molecule?
**A.** Its IC50 is over 10 µM.

**Q.** And the IC50 (CHK2)?
**A.** Its IC50 is over 10 µM.

**Q.** And the IC50 (CDK7)?
**A.** Its IC50 is over 10 µM.

**Q.** And the IC50 (ATR)?
**A.** The IC50 was over 10 µM.

**Q.** And the IC50 (AURKA)?
**A.** The IC50 was over 10 µM.

**Q.** What about the “Effect on proliferation of MLC cells” value (MLC cells) of the same molecule?
**A.** Its value is “minimally antagonized”.

**Q.** What about the IC50 (AKT3) of the same molecule?
**A.** Its IC50 is over 10 µM.

**Q.** And the IC50 (BCK)?
**A.** The IC50 was over 10 µM.

**Q.** And the “Expression of VprBP target genes” value [2]?
**A.** The value was “higher expression of VprBP target genes”.

**Q.** And the IC50 (RSK3)?
**A.** Its IC50 is over 10 µM.
